Here are results for one substance from paper PMC2673211, “Nitric oxide activates ATP-sensitive potassium channels in mammalian sensory neurons: action by direct S-nitrosylation” (Molecular Pain, 2009).

Common to all, as to format: biochemical
Assay [1] concerns the target T1, wild-type SUR1/Kir6.2 channels (Rattus norvegicus, UniProt P70673+Q09429).
T1 construct: A full-length Kir cDNA and a full-length SUR cDNA were subcloned into the mammalian expression vector; expressed in transfected cells; host or cells: COS7 cells (KATP channel-deficient), pcDNA3.1(-) vectors, GFP cDNA co-transfected as a separate reporter
As to the kind of experiment: Inside-out patch recording of recombinant wild-type channels expressed in COS7 cells. To be noted: SNAP 1 mM in the presence of 1 mM [ATP]i; n = 7. Here is the method:
(§1) KATP channel-deficient COS7 cells were plated at a density of 3 × 10^5/dish (35 mm in diameter) and cultured in Dulbecco's modified Eagle's medium supplemented with 10% fetal calf serum. Rat Kir6.2 (GenBank X97041) and rat SUR1 (GenBank X97279) cDNAs were used for expression study. A truncated form of Kir6.2 lacking the last 36 amino acids at the C-terminus was obtained by polymerase chain reaction amplification. Polymerase chain reaction products were cloned into the pCR3.1 vector by using the TA cloning system (Invitrogen Corp., Carlsbad, CA, USA) and then cloned into the pcDNA3.1 (-) vector (Invitrogen Corp.) for mammalian expression. Point mutation of cysteine at position 717 (C717), C806, C1378, C1446, and C1491 within SUR1 to serine (C717S, C806S, C1378S, C1446S, and C1491S) was performed by using the Site-Directed Mutagenesis system (Invitrogen Corp.). All cDNA products were sequenced by using the BigDye terminator cycle sequencing kit and an ABI PRISM 377 DNA sequencer (Applied Biosystems, Foster City, CA) to confirm the sequence. A full-length Kir cDNA and a full-length SUR cDNA were subcloned into the mammalian expression vector pcDNA3.1 (-). For electrophysiological recordings, either wild-type or mutated pcDNA3.1 (-) Kir6.2 alone (1 μg), or pcDNA3.1 (-) Kir6.2 (1 μg) plus pcDNA3.1 (-) SUR1 (3 μg) were transfected into COS7 cells with green fluorescent protein cDNA as a reporter gene by using lipofectamine and Opti-MEN 1 reagents (Life Technologies Inc., Rockville, MD) according to the manufacturer's instructions. After transfection, cells were cultured at 37°C with 95% air and 5% CO2 for 48–72 h before being subjected to electrophysiological recordings.
(§2) We recorded current passing through single channels in inside-out or cell-attached patch configurations. In cell-attached patches, both bath and pipette (extracellular) solutions were composed of the following: 140 mM KCl, 10 mM HEPES, 5.5 mM dextrose, and 1 mM EGTA. In inside-out patches, the bath (intracellular) solution contained 140 mM KCl, 1.2 mM MgCl2, 10 mM HEPES, 1.5 mM EGTA and 5.5 mM dextrose. The pipette (extracellular) solution was of the same composition as that used in cell-attached recordings. The pH of all solutions was adjusted to 7.4 with KOH. Osmolality was adjusted approximately to 300 mOsm/l by adding sucrose if necessary. We pulled patch micropipettes from borosilicate glass capillaries using a Flaming/Brown micropipette puller, model P-97 (Sutter, San Rafael, CA) and flame polished them with a microforge polisher (Narishige, Tokyo, Japan) prior to use. Their resistance ranged between 3 and 6 MΩ when filled with the internal solution, and placed into the recording solutions.
(§3) We recorded single channel currents at room temperature (20–25°C) using an Axon CNS Multiclamp 700B amplifier, digitized them using an analog-to-digital converter (Axon CNS DigiData 1440A; Axon Instruments, Foster, CA), and stored them into a PC. Sampling frequency of single-channel data was 5 KHz with a low-pass filter (1 KHz). We used pClamp version 10.2 software (Axon Instruments) for data acquisition and analysis. […] Channel open probability (Po) was determined from the ratios of the area under the peaks in the amplitude histograms fitted by a Gaussian distribution. We calculated channel activity as NPo (where N is the number of observed channels in the patch) from data samples of either 30 s (in inside-out recordings), or 60 s (in cell-attached recordings), in the steady state. […]

The target of assay [2] is T2, Kir6.2ΔC36 channels (Rattus norvegicus, UniProt P70673).
T2 construct: A truncated form of Kir6.2 lacking the last 36 amino acids at the C-terminus; expressed in transfected cells; host or cells: COS7 cells, pcDNA3.1(-) Kir6.2 alone, GFP cDNA co-transfected as a separate reporter
T2 sequence (P70673 1-354 limits assumed): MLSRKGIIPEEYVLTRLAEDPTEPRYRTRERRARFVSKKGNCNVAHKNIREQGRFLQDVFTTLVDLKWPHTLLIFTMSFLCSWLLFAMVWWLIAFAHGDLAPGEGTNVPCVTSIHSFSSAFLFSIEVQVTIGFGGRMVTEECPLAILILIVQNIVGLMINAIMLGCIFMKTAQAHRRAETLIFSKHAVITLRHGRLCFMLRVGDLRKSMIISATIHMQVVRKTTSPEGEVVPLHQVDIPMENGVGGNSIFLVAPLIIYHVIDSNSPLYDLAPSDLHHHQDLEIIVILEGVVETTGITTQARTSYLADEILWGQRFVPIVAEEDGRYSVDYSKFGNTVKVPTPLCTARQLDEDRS
As to the kind of experiment: Inside-out patch recording of truncated Kir6.2 channels expressed in COS7 cells. As to conditions: SNAP 1 mM in the presence of 1 mM [ATP]i; n = 6. The protocol:
KATP channel-deficient COS7 cells were plated at a density of 3 × 10^5/dish (35 mm in diameter) and cultured in Dulbecco's modified Eagle's medium supplemented with 10% fetal calf serum. Rat Kir6.2 (GenBank X97041) and rat SUR1 (GenBank X97279) cDNAs were used for expression study. A truncated form of Kir6.2 lacking the last 36 amino acids at the C-terminus was obtained by polymerase chain reaction amplification. Polymerase chain reaction products were cloned into the pCR3.1 vector by using the TA cloning system (Invitrogen Corp., Carlsbad, CA, USA) and then cloned into the pcDNA3.1 (-) vector (Invitrogen Corp.) for mammalian expression. […]
We recorded current passing through single channels in inside-out or cell-attached patch configurations. […]
as §3, with “PC.” for “PC. Sampling frequency of single-channel data was 5 KHz with a low-pass filter (1 KHz). We used pClamp version 10.2 software (Axon Instruments) for data acquisition and analysis.”

The target of assay [3] is T3, SUR1-C717S/Kir6.2 channels (Rattus norvegicus, UniProt P70673+Q09429, C717S).
T3 construct: A full-length Kir cDNA and a full-length SUR cDNA were subcloned into the mammalian expression vector; expressed in transfected cells; host or cells: COS7 cells, pcDNA3.1(-) vectors, GFP cDNA co-transfected as a separate reporter
T3 sequence (Q09429 whole entry C717S): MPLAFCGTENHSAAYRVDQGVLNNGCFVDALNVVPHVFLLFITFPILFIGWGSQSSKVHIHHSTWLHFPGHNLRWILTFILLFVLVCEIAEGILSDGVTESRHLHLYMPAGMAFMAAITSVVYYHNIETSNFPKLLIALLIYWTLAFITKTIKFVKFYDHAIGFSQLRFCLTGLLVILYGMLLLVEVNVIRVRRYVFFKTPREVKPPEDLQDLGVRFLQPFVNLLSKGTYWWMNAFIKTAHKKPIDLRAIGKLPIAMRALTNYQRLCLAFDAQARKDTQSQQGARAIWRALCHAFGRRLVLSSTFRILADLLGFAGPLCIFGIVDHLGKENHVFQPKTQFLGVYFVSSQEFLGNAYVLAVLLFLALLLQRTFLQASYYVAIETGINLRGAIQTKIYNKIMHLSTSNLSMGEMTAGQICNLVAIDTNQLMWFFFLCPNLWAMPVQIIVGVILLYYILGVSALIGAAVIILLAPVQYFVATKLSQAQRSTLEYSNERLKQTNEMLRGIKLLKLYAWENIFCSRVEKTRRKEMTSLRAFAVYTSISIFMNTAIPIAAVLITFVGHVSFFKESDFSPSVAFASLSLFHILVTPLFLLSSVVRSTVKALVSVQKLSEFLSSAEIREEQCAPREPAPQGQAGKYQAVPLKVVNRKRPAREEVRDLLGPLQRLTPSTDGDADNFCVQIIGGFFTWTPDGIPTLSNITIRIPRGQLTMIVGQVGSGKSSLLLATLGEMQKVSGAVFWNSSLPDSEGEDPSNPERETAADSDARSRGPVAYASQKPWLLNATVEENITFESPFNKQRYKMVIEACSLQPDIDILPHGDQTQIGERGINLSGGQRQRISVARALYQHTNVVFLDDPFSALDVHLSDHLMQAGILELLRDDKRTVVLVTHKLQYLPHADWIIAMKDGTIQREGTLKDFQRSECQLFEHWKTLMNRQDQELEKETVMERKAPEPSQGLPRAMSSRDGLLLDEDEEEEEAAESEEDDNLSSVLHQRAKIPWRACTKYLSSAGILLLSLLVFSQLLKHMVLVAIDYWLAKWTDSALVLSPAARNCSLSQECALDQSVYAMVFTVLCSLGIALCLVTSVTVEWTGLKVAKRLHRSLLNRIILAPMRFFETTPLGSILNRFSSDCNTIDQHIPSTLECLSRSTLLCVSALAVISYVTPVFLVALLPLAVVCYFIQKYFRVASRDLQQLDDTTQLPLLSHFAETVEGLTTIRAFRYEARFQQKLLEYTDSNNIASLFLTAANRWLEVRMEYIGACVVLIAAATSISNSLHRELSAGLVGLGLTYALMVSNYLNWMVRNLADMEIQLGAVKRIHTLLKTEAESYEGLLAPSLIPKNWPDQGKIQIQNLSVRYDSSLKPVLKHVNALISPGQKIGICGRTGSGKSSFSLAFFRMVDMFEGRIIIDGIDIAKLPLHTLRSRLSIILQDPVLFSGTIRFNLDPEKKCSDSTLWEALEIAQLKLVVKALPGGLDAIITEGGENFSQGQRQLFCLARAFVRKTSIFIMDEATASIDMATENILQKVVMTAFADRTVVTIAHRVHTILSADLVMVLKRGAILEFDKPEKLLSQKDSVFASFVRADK
T3 sequence (P70673 whole entry): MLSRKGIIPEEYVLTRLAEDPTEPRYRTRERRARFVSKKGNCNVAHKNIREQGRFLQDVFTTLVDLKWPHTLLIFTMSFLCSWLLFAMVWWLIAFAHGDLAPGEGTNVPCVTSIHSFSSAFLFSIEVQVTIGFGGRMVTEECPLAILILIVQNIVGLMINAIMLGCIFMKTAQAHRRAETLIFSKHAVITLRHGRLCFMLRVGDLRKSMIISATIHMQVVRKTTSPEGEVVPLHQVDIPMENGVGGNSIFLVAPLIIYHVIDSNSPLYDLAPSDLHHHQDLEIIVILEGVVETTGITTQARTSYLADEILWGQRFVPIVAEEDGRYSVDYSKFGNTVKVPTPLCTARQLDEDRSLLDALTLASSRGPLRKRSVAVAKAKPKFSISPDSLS
As to the kind of experiment: Inside-out patch recording of mutated channels expressed in COS7 cells. The protocol: as §1, §2, §3

T1 sequence (Q09429 whole entry): as the sequence (Q09429 whole entry C717S) above, with S717C counted along it
T1 sequence (P70673 whole entry): as the sequence (P70673 whole entry) above

Take S-nitroso-N-acetylpenicillamine [SNAP]: the “effect on recombinant channel activity” value in assay [1] and in assay [3] (SNAP 1 mM in the presence of 1 mM [ATP]i) was “significantly activated” in each case. Moreover, in assay [2], the “effect on Kir6.2ΔC36 currents” value is reported as “fails to activate”. In addition, the “potency in activating the channel compared with the wild-type SUR1/Kir6.2 channel” value in assay [3] (SNAP, n = 8, p < 0.02 vs. wild type) is listed as “significantly less potent”.
